The values below come from PMC7367873, “Dissecting the sequence determinants for dephosphorylation by the catalytic subunits of phosphatases PP1 and PP2A” (Nature Communications, 2020).

The experiment deals with PP1c/PP2Ac. Nature of the experiment: PP1c versus PP2Ac specificity of p-sites (pairwise comparison / hierarchical clustering of phosphoproteomic data). It is filed as biochemical, human. As to conditions: for share of substrates specific to the phosphatase: hierarchical clustering; for number of specific sequences (cluster size): hierarchical clustering after one-way ANOVA. How it is done:
For phosphoproteomics, HeLa Kyoto cells were incubated with 20 nM Calyculin A (CST, #9902) for 10–15 min. This time point was determined empirically to yield maximal phosphatase inhibition without cells showing pleiotropic effects. Subsequently, cells were placed on ice and washed twice with cold PBS and scraped in lysis buffer (100 mM NaCl, 10 mM Tris, 0.1% IGEPAL, 1 mM EDTA, 1 mM EGTA, 20 nM Calyculin A, 1x cOmplete Mini protease inhibitor cocktail (Sigma), 1 mM DTT, 1 mM MnCl2, pH 7.5). After 10 pushes through an injection needle (21 G, BD), lysate was cleared from the insoluble fraction by centrifugation (10 min, 10^4 rcf, 4 °C). Protein concentration was then determined by a Bradford Assay and equal amounts of 1 mg total protein were incubated with recombinant PP1c/PP2Ac or buffer at a final phosphatase concentration of 1 µM in a total volume of 200 µL for 1 h at 30 °C. Lysates were then immediately placed on ice. PhosStop […] (Roche) was added and proteins were denatured by adding urea to a final concentration of 8 M taking into account the volume increase. Samples were then snap-frozen in liquid nitrogen for storage and subsequent MS analysis.
Downstream analysis of the phosphoproteomic datasets was carried out using the software tool Perseus[66]. For analysis of phosphoproteomic experiments, row-wise, median-normalized data (see previous section) was linked to known regulatory sites by PhosphoSitePlus entries and categorical columns for treatments were assigned. Reverse peptides and potential contaminants were filtered. Next, categorical columns for biological functions and treatments were assigned. TMT reporter intensities were then transformed into log2. At this point, all data were then filtered for valid values in all three replicates of at least one condition. Next, the distribution of TMT reporter intensities was assessed visually by plotting count-based histogramms and in a multiscatter plot using the Pearson correlation as an estimate of reproducibility. Next, NA (=not available: missing) values were replaced by imputation from a normal distribution (width 0.3, down-shift 1.8, per column). The data quality was routinely assessed by two means: First, by plotting a histogram of peptide length vs. counts and visualization of imputed values to confirm a normal distribution of the data, and secondly by principal component analysis (default settings in Perseus) to judge the sample grouping.
For hierarchical clustering, the results of the one-way ANOVA were processed for two more steps in Perseus: first data were filtered for significant hits from the one-way ANOVA and then subjected to z-transformation. Hierarchical clustering images were produced using Euclidean distance, 300 clusters and 10 rounds of iteration.
Also all further data processing for protein enrichment and extraction of protein sequences in positions −5 to +5 relative to the p-sites of interest for subsequent motif analysis was performed using RStudio with R v3.3.2 using the packages tidyverse and BioStrings. In order to study the sequence specificity of PP1c and PP2Ac on the protein level, position specific probability matrices, representing the relative occurrence for each amino acid surrounding pSer/pThr were produced by extracting sequence information in positions −5 to +5 for all PP1c/PP2Ac-sensitive class I p-sites. Next, the count for each amino acid in each position was divided by the total of all counts for a certain position, resulting in relative abundance. […] Importantly, amino acids with less than 25 counts in PP1-sensitive/-insensitive or PP2A-sensitive/insensitive comparisons were excluded. For calculating a heat map directly comparing PP1c against PP2Ac, these fold changes were divided. […] Obtained p-values were adjusted for multiple testing using the method of Benjamini and Hochberg.
PP1c/PP2Ac-sensitive class I sites were divided into three classes as illustrated for PP1c in Supplementary Fig. 4c. […]

With “PP2Ac: His-tagged recombinant PPP2CA ΔL309, purchased from Cayman Chemical”, the “share of substrates specific to the phosphatase” value is 24% and the “number of specific sequences (cluster size)” value is given as 663 sequences.
As for “PP1c: recombinant catalytic subunit of PP1”, the “share of substrates specific to the phosphatase” value is given as 28% and the “number of specific sequences (cluster size)” value turned out to be 777 sequences.
